Assay results reported in ChEMBL document CHEMBL4184320, “Optimization of Selective Mitogen-Activated Protein Kinase Interacting Kinases 1 and 2 Inhibitors for the Treatment of Blast Crisis Leukemia” (J Med Chem, 2018).
Converted amounts (≈) assume the structure as drawn. The source made the active and inactive calls. No cut-off for these calls is given here.

How the values were obtained:
K562 [1] = assay: Antitumor activity against human K562 cells overexpressing GFP-fussed full length mouse eIF4E xenografted in SCID mouse assessed as tumor growth inhibition at 2.5 mg/kg, po qd administered via gavage for 5 days on 2 days off per cycle for 2 cycles relative to control; format: functional; conditions: read-out: TGI
[2] = Octanol-phosphate buffer partition coefficient, logD of compound at pH 7.4 by HPLC-UV analysis; format: physicochemical
[3] = Permeability of the compound by PAMPA; format: ADME; conditions: read-out: permeability
Cytochrome P450 2D6 = Cytochrome P450 2D6 (Homo sapiens, UniProt P10635); assay: Inhibition of CYP2D6 in human liver microsomes using dextromethorphan as substrate preincubated for 5 mins followed by NADPH addition by LC-MS/MS analysis; format: ADME
[4] = Thermodynamic solubility of the compound at pH 4 to 7.4 pION buffer after 18 hrs by UV spectrophotometric analysis; format: physicochemical; conditions: read-out: Therm_solubility
[5] = Apparent permeability of the compound across apical side to basolateral side in human Caco2 cells by LC-MS/MS analysis; format: ADME, cell-based; conditions: Caco-2
[6] = Protein binding in human plasma at […] after 5 hrs by LC-MS/MS analysis; format: ADME, cell-free; conditions: read-out: PPB (converted)
[7] = Protein binding in mouse plasma at […] after 5 hrs by LC-MS/MS analysis; format: ADME, cell-free; conditions: read-out: PPB (converted)
[8] = Oral bioavailability in mouse at 50 mg/kg; format: ADME, organism-based; conditions: in vivo
Cytochrome P450 3A4 = Cytochrome P450 3A4 (Homo sapiens, UniProt P08684)
Description: Inhibition of CYP3A4 in human liver microsomes using midazolam as substrate preincubated for 5 mins followed by NADPH addition measured after 5 mins by LC-MS/MS analysis

in vitro [9] = conditions: human, liver microsomes
Description: Half life in human liver microsomes at 1 uM in presence of NADPH by LC-MS/MS analysis

in vitro [10] = conditions: mouse, liver microsomes
Description: Half life in mouse liver microsomes at 1 uM in presence of NADPH by LC-MS/MS analysis

[11] = biological target: MAP kinase-interacting serine/threonine-protein kinase 1 (Homo sapiens, UniProt Q9BUB5)
Description: Inhibition of GST-tagged MNK1 (37 to 341 residues) (unknown origin) expressed in Escherichia coli BL21(DE3) using JH3 peptide as substrate preincubated for 10 mins followed by substrate and ATP addition measured after 60 mins

[12] = biological target: MAP kinase-interacting serine/threonine-protein kinase 2 (Homo sapiens, UniProt Q9HBH9)
Description: Inhibition of GST-tagged MNK2 (72 to 385 residues) (unknown origin) expressed in Escherichia coli BL21(DE3) using JH3 peptide as substrate preincubated for 10 mins followed by substrate and ATP addition measured after 60 mins

[13] = biological target: MAP kinase-interacting serine/threonine-protein kinase 1/2 (Homo sapiens, UniProt Q9HBH9+Q9BUB5); assay: Inhibition of MNK1/2 in human HeLa cells assessed as decrease in eIF4E phosphorylation at Ser209 after 2 hrs by AlphaScreen assay; format: cell-based
[14] = Half life in dog liver microsomes at 1 uM in presence of NADPH by LC-MS/MS analysis; format: ADME, Canis lupus familiaris, microsome
[15] = Initial concentration in CD-1 mouse at 1 mg/kg, iv administered as single dose by LC-MS/MS analysis; format: ADME, organism-based; conditions: in vivo
[16] = AUClast in CD-1 mouse at 5 mg/kg, po administered via gavage as single dose by LC-MS/MS analysis; format: ADME, organism-based; design: dose 5 mg/kg, time 0 - last, route oral; conditions: in vivo
[17] = AUClast in CD-1 mouse at 1 mg/kg, iv administered as single dose by LC-MS/MS analysis; format: ADME, organism-based; design: dose 1 mg/kg, time 0 - last, route intravenous; conditions: in vivo
[18] = Cmax in CD-1 mouse at 5 mg/kg, po administered via gavage as single dose by LC-MS/MS analysis; format: ADME, organism-based; design: dose 5 mg/kg, route oral; conditions: in vivo
[19] = Clearance in CD-1 mouse at 1 mg/kg, iv administered as single dose by LC-MS/MS analysis; format: ADME, organism-based; conditions: in vivo
[20] = Half life in CD-1 mouse at 1 mg/kg, iv administered as single dose by LC-MS/MS analysis; format: ADME, organism-based; conditions: in vivo
[21] = Half life in CD-1 mouse at 5 mg/kg, po administered via gavage as single dose by LC-MS/MS analysis; format: ADME, organism-based; conditions: in vivo
[22] = Oral bioavailability in CD-1 mouse at 5 mg/kg administered via gavage as single dose by LC-MS/MS analysis; format: ADME, organism-based; conditions: in vivo
[23] = biological target: Serine/threonine-protein kinase 17A (Homo sapiens) (UniProt Q9UEE5); assay: Inhibition of wild-type human partial length DRAK1 (R32 to E363 residues) expressed in bacterial expression system at 1 uM by Kinomescan method relative to control
[24] = biological target: Receptor-type tyrosine-protein kinase FLT3 (Homo sapiens) (UniProt P36888); assay: Inhibition of wild-type human partial length FLT3 (V592 to Y969 residues) expressed in bacterial expression system at 1 uM by Kinomescan method relative to control
[25] = biological target: Mast/stem cell growth factor receptor Kit (Homo sapiens) (UniProt P10721); assay: Inhibition of wild-type human partial length KIT (I571 to D952 residues) expressed in bacterial expression system at 1 uM by Kinomescan method relative to control
[26] = biological target: Platelet-derived growth factor receptor alpha (Homo sapiens) (UniProt P16234); assay: Inhibition of wild-type human partial length PDGFRA (V575 to D1002 residues) expressed in mammalian expression system at 1 uM by Kinomescan method relative to control
[27] = biological target: Platelet-derived growth factor receptor beta (Homo sapiens) (UniProt P09619); assay: Inhibition of wild-type human partial length PDGFRB (V582 to Y1009 residues) expressed in bacterial expression system at 1 uM by Kinomescan method relative to control
[28] = biological target: Phosphorylase b kinase gamma catalytic chain, liver/testis isoform (Homo sapiens) (UniProt P15735); assay: Inhibition of wild-type human partial length PHKG2 (M1 to W300 residues) expressed in bacterial expression system at 1 uM by Kinomescan method relative to control
[29] = biological target: SRSF protein kinase 3 (Homo sapiens) (UniProt Q9UPE1); assay: Inhibition of human SRPK3 (P41 to P567 residues) expressed in bacterial expression system at 1 uM by KINOMEscan assay relative to control
[30] = biological target: Platelet-derived growth factor receptor alpha (Homo sapiens) (UniProt P16234); assay: Inhibition of wild-type human partial length PDGFRA (V575 to D1002 residues) expressed in mammalian expression system by Kinomescan method
[31] = biological target: Receptor-type tyrosine-protein kinase FLT3 (Homo sapiens) (UniProt P36888); assay: Inhibition of wild-type human partial length FLT3 (V592 to Y969 residues) expressed in bacterial expression system by Kinomescan method
Homo sapiens [32] = species on record: Homo sapiens; assay: Antiproliferative activity against human GK5 cells after 48 hrs by CellTiter-Glo luminescence assay; format: functional, cell-based
DOHH-2 = assay: Antiproliferative activity against human DOHH2 cells after 48 hrs by CellTiter-Glo luminescence assay; format: functional, cell-based
Homo sapiens [33] = species on record: Homo sapiens; assay: Antiproliferative activity against human AHH1 cells after 48 hrs by CellTiter-Glo luminescence assay; format: functional, cell-based
P3HR-1 = assay: Antiproliferative activity against human P3HR1 cells after 48 hrs by CellTiter-Glo luminescence assay; format: functional, cell-based
in vitro [34] = conditions: rat, liver microsomes
Description: Half life in rat liver microsomes at 1 uM in presence of NADPH by LC-MS/MS analysis

Mus musculus [35] = assay: Toxicity in NOD/SCID mouse assessed as change in weight loss up to 200 mg/kg, po administered gavage treated for 7 consecutive days measured for 7 days post last dose; format: organism-based; conditions: in vivo, 168 h
Mus musculus [36] = assay: Toxicity in NOD/SCID mouse assessed as clinical adverse effect up to 200 mg/kg, po administered gavage treated for 7 consecutive days measured for 7 days post last dose; format: organism-based; conditions: in vivo, 168 h
K562 [37] = assay: Antitumor activity against human K562 cells overexpressing GFP-fussed full length mouse eIF4E xenografted in SCID mouse assessed as tumor growth inhibition at 100 mg/kg, po qd administered via gavage for 14 days relative to control; conditions: 336 h, read-out: TGI
[38] = biological target: Dual specificity mitogen-activated protein kinase kinase; MEK1/2 (Homo sapiens) (UniProt P36507+Q02750); assay: Inhibition of MEK (unknown origin) at 1 uM by KINOMEscan assay relative to control; format: protein assay
K562 [39] = assay: Antitumor activity against human K562 cells overexpressing GFP-fussed full length mouse eIF4E xenografted in SCID mouse assessed as tumor growth inhibition administered as qd via gavage for 14 days cotreated with 2.5 mg/kg dasatinib for 1 hr post dose; format: functional, organism-based
Mus musculus [40] = assay: Toxicity in SCID mouse xenografted with human K562 cells overexpressing GFP-fussed full length mouse eIF4E assessed as weight loss at 25 to 100 mg/kg, po qd administered via gavage for 14 days cotreated with 2.5 mg/kg dasatinib for 1 hr post dose; format: organism-based; conditions: in vivo
Mus musculus [41] = assay: Down regulation of phosphorylated CRKL in CB17 SCID mouse xenografted with human K562 cells overexpressing GFP-fussed full length mouse eIF4E at 100 mg/kg, po administered as single dose up to 8 hrs cotreated with 2.5 mg/kg dasatinib by Western blot; format: functional, organism-based
Mus musculus [42] = assay: Down regulation of phosphorylated eIF4E in CB17 SCID mouse xenografted with human K562 cells overexpressing GFP-fussed full length mouse eIF4E at 100 mg/kg, po administered as single dose up to 8 hrs cotreated with 2.5 mg/kg dasatinib by Western blot; format: functional, organism-based
K562 [43] = assay: Antitumor activity against human K562 cells overexpressing GFP-fussed full length mouse eIF4E xenografted in SCID mouse assessed as increase in tumor free animal at 100 mg/kg, po administered as qd via gavage for 14 days cotreated with 2.5 mg/kg dasatinib for 1 hr post dose; format: functional, organism-based
in vivo = conditions: CD-1, mouse, po, 5 mg/kg
Description: Tmax in CD-1 mouse at 5 mg/kg, po administered via gavage as single dose by LC-MS/MS analysis

Cytochrome P450 3A4, sequence (P08684 whole entry): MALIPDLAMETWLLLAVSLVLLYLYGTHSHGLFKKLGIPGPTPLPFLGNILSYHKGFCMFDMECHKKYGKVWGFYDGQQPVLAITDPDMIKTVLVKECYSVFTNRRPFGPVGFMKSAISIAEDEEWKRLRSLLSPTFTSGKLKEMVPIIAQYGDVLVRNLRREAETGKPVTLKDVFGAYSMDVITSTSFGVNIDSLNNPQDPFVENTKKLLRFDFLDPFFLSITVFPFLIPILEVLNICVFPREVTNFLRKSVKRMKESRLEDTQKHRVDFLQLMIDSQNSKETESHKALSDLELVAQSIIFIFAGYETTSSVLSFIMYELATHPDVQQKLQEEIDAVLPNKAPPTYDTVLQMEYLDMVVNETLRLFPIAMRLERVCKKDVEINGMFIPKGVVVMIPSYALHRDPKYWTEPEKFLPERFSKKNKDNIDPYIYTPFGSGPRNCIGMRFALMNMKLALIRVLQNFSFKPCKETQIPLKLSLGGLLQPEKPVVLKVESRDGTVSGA
Cytochrome P450 2D6, sequence (P10635 whole entry): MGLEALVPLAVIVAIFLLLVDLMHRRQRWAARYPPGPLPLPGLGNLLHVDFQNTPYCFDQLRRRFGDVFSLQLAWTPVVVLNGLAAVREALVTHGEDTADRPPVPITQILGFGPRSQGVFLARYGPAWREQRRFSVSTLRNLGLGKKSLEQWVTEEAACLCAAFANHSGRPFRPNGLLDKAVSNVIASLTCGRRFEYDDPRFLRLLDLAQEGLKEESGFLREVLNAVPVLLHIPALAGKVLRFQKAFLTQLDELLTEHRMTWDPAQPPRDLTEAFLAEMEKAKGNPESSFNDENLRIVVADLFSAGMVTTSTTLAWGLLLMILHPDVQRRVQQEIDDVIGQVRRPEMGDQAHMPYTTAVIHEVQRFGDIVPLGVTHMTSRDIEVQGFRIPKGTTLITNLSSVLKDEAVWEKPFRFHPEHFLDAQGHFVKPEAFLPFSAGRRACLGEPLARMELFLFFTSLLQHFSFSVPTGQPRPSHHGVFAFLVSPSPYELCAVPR
Platelet-derived growth factor receptor alpha (Homo sapiens), sequence (P16234 whole entry, the tested form may be a part): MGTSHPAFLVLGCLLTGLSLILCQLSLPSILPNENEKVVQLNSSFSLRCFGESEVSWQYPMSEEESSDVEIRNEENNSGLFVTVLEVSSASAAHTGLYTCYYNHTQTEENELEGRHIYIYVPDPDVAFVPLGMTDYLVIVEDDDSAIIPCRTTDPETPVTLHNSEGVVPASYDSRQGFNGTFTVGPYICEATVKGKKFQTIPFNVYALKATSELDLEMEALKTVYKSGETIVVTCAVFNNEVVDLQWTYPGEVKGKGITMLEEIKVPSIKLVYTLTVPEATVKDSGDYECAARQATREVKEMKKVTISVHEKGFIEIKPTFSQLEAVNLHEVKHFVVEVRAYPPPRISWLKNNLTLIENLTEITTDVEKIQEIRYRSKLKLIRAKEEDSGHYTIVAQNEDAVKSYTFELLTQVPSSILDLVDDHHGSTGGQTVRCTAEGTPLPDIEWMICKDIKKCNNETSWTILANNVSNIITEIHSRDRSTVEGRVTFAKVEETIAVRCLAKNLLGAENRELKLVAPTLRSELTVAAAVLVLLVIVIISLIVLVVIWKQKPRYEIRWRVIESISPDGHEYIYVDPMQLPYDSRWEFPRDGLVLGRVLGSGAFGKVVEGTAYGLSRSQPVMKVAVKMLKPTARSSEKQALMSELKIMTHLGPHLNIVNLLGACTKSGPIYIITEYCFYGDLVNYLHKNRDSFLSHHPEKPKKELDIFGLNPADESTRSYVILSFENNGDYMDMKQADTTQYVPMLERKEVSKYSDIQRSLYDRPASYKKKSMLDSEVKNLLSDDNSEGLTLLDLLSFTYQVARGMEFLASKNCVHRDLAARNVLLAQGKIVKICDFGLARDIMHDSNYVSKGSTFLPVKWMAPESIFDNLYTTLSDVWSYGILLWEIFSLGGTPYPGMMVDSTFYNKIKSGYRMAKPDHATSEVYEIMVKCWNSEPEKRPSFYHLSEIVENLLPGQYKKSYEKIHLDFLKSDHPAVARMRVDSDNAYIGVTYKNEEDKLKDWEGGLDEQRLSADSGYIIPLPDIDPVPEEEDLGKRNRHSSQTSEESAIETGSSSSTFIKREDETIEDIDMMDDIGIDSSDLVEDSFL
Receptor-type tyrosine-protein kinase FLT3 (Homo sapiens), sequence (P36888 whole entry, the tested form may be a part): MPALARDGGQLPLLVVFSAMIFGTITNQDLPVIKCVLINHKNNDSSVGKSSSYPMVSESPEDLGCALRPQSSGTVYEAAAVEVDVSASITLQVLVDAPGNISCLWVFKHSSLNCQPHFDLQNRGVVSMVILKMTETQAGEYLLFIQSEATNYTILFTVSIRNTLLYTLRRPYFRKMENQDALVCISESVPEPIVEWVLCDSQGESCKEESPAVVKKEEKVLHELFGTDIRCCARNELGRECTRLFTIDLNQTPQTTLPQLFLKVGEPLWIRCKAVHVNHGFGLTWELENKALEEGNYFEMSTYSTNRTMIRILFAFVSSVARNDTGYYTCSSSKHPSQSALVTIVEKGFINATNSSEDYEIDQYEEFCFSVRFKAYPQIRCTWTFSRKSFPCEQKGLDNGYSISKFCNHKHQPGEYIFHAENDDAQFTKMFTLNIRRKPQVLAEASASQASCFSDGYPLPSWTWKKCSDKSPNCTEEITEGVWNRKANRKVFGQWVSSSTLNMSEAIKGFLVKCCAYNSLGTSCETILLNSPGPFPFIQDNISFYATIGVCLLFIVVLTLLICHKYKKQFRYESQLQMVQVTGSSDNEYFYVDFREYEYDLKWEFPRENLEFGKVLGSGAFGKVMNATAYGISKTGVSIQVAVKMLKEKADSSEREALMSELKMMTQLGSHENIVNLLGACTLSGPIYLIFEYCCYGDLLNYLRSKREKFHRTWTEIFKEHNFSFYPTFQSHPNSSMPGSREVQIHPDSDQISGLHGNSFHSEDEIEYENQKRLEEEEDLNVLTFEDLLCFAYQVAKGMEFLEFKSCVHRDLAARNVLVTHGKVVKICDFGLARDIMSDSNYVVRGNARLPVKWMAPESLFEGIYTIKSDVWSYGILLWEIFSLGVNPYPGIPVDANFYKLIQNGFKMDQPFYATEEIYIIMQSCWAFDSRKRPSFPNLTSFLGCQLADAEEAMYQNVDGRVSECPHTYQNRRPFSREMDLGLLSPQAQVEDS
Dual specificity mitogen-activated protein kinase kinase; MEK1/2 (Homo sapiens), sequence (P36507 whole entry, looked up): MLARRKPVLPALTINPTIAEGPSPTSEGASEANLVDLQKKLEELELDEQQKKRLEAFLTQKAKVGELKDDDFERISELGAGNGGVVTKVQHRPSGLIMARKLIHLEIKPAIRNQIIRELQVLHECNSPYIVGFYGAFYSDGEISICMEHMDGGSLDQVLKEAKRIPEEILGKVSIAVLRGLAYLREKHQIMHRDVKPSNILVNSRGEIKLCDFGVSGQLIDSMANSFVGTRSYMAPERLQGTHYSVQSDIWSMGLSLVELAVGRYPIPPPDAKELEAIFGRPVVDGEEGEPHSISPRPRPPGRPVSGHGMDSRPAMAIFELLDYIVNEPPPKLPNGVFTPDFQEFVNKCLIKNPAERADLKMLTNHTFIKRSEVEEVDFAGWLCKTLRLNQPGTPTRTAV
Dual specificity mitogen-activated protein kinase kinase; MEK1/2 (Homo sapiens), sequence (Q02750 whole entry, looked up): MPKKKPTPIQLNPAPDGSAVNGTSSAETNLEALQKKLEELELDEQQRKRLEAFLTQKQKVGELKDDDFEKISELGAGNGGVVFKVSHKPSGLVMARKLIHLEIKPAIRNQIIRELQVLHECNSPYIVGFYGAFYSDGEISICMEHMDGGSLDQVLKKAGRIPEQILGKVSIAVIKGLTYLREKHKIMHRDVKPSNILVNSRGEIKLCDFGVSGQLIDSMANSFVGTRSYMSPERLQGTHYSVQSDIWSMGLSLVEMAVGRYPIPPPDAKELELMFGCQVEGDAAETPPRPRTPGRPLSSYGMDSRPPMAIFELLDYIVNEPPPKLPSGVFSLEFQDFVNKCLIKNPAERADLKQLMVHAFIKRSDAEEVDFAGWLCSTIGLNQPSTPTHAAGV
Phosphorylase b kinase gamma catalytic chain, liver/testis isoform (Homo sapiens), sequence (P15735 whole entry, the tested form may be a part, canonical isoform): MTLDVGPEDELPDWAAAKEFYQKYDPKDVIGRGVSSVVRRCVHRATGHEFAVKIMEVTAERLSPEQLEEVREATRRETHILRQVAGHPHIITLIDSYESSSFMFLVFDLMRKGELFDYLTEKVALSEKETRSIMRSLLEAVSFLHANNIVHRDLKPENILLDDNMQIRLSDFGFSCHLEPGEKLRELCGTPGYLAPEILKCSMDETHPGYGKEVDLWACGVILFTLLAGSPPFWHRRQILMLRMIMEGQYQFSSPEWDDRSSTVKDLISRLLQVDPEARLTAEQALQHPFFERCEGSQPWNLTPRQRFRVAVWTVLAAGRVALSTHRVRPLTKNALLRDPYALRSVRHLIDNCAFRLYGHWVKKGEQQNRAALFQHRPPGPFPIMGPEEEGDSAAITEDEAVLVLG
SRSF protein kinase 3 (Homo sapiens), sequence (Q9UPE1 whole entry, the tested form may be a part): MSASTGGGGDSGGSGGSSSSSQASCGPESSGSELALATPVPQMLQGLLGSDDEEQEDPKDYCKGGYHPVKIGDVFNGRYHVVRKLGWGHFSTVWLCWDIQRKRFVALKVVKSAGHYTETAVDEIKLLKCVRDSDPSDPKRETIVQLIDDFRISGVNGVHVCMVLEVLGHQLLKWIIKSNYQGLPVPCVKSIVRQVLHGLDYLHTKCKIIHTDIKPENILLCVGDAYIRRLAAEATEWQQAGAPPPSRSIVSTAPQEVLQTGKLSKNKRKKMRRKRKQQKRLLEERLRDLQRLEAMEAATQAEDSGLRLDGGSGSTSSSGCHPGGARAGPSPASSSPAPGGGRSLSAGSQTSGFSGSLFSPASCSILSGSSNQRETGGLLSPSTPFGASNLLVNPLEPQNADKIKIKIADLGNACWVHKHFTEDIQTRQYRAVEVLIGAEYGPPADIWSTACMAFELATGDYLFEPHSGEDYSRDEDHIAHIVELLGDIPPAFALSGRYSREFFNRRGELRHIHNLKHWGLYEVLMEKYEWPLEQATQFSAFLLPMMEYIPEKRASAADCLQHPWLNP

| Compound | logD [2] | Papp [3] | IC50 (Cytochrome P450 2D6) | solubility thermodynamic at 18 h [4] | Papp A→B [5] | fraction unbound at 5 h [6] | fraction unbound at 5 h [7] | IC50 (Cytochrome P450 3A4) | half-life at 1 µM (in vitro [9]) | half-life at 1 µM (in vitro [10]) | half-life at 1 µM [14] | C0 [15] | AUC(0-t) [16] | AUC(0-t) [17] | Cmax [18] | clearance [19] | half-life [20] | half-life [21] | bioavailability [22] | Activity (Homo sapiens [32]) | other results |
| --- | --- | --- | --- | --- | --- | --- | --- | --- | --- | --- | --- | --- | --- | --- | --- | --- | --- | --- | --- | --- | --- |
| Cc1nc(Nc2ncc(C(=O)Nc3c(C)cccc3Cl)s2)cc(N2CCN(CCO)CC2)n1 [DASATINIB] | – | – | – | – | – | – | – | – | – | – | – | – | – | – | – | – | – | – | – | – | inhibition in vivo at 2.5 mg/kg (K562 [1]): 88% |
| CN1CCN(C(=O)c2ccc(-c3cn4c(-c5ccc(C#N)cc5)cnc4cn3)cc2)CC1 | 1.67 | 102 ×10⁻⁶ cm/s | > 20 µM | > 125 µg/mL | 6.87 ×10⁻⁶ cm/s | 0.016 | 0.129 | > 20 µM | 0.683 h | 0.617 h | – | – | – | – | – | – | – | – | – | – | bioavailability [8]: 48% |
| N#Cc1ccc(-c2cnc3ccc(-c4ccc(C(=O)N5CCOCC5)cc4)nn23)cc1 | 2.1 | 30 ×10⁻⁶ cm/s | > 20 µM | 1.8 µg/mL (≈ 4.4 µM) | 38.5 ×10⁻⁶ cm/s | 0.001 | 0.055 | > 20 µM | 0.883 h | > 1 h | > 1 h | 2940 ng/mL | 24100 ng·h/mL | 6120 ng·h/mL | 4400 ng/mL | 2.67 mL/min/kg | 2.32 h | 2.14 h | 79% | Active | IC50 [11]: 0.023 µM; IC50 [12]: 0.041 µM; IC50 [13]: 0.421 µM; inhibition [23]: > 65%; inhibition [24]: > 65%; inhibition [25]: > 65%; inhibition [26]: > 65%; inhibition [27]: > 65%; inhibition [28]: > 65%; inhibition [29]: > 65%; INH [30]: 0.25 µM; INH [31]: 0.88 µM; Activity (DOHH-2): Active; Activity (Homo sapiens [33]): Active; Activity (P3HR-1): Active; half-life at 1 µM (in vitro [34]): > 1 h |
| N#Cc1ccc(-c2cnc3ccc(-c4ccc(C(=O)N5CCOCC5)cc4)cn23)cc1 [TINODASERTIB] | 2.61 | 74.4 ×10⁻⁶ cm/s | > 20 µM | 55.4 µg/mL (≈ 136 µM) | 30.5 ×10⁻⁶ cm/s | 0.003 | 0.158 | > 20 µM | 0.8 h | 0.933 h | > 1 h | 2380 ng/mL | 5480 ng·h/mL | 1760 ng·h/mL | 2480 ng/mL | 9.33 mL/min/kg | 1.7 h | 1.77 h | 64% | Active | Activity (Mus musculus [35]): Non-Toxic; Activity (Mus musculus [36]): Non-Toxic; inhibition in vivo at 100 mg/kg (K562 [37]): 23%; inhibition [38]: > 65%; TGI (K562 [39]): Dose-dependent effect; Activity (Mus musculus [40]): Non-Toxic; Activity (DOHH-2): Active; Activity (Homo sapiens [33]): Active; Activity (P3HR-1): Active; Activity (Mus musculus [41]): Active; Activity (Mus musculus [42]): Active; Activity (K562 [43]): Active; Tmax (in vivo): 0.5 h; half-life at 1 µM (in vitro [34]): > 1 h |
